Entries after “also recorded” stand apart in the source; their conditions may differ.
Assays:
[1] = DPPH radical-scavenging activity; details: 500 μM, 30 min in the dark
Protocol: For measuring the scavenging effect of analogs 1–12 on DPPH radicals, test samples (analogs 1–12 and ascorbic acid [positive reference standard]; final concentration: 500 μM) were mixed with a DPPH solution, and absorbance was measured at 517 nm after storing for 30 min in the dark to determine % DPPH radical-scavenging ability.
L-Ascorbic acid was used as a positive control. Test samples (analogs 1–12 and L-ascorbic acid; 5 mM, 20 μL) dissolved in DMSO were added to each well of a 96-well plate containing the DPPH methanol solution (0.2 mM, 180 μL), and the plate was placed in the dark at 20 °C for 30 min. The absorbance was recorded at 517 nm using a VE microplate reader to calculate DPPH radical-scavenging activity.

mushroom tyrosinase = mushroom tyrosinase (Agaricus bisporus, UniProt C7FF04); test: Mushroom tyrosinase inhibition assay (dopachrome, 475 nm); type: biochemical; details: substrate L-tyrosine
Sequence of mushroom tyrosinase (C7FF04 2-392): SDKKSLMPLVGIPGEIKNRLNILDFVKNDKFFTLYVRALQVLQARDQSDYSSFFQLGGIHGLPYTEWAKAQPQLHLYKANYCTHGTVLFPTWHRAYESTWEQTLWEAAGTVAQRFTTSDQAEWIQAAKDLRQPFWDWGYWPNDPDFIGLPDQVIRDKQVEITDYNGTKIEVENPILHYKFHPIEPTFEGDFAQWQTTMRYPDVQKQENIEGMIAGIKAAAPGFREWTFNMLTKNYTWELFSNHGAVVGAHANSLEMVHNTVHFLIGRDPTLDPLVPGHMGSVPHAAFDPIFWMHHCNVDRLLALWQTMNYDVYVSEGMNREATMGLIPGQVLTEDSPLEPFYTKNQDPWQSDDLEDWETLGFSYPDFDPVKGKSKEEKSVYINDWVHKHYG
Protocol: The plate was placed at 37 °C for 30 min, and well absorbance was measured at 475 nm to determine the generated dopachrome amounts in each well using a VersaMax® Elisa (VE) microplate reader (Molecular Devices, San Jose, CA, USA).

B16F10 cells [2] = test: Cytotoxicity assay on B16F10 murine melanoma cells (EZ-Cytox); type: cell-based; details: 1, 2, 5 and 10 μM, 72 h
Protocol: Cell viability for analogs 1–3 was examined on B16F10 cells at 1, 2, 5, and 10 μM concentrations for 72 h.
The influence of (Z)-BBTT analogs 1–3 on B16F10 cell viability was studied using an EZ-Cytox solution (EZ-1000®, DoGenBio, Seoul, Republic of Korea). B16F10 cells were seeded at a density of 1 × 10^3 in each well of a 96-well plate, and the plate was cultivated under normal cell culture conditions for 24 h. Analogs were added to each well at concentrations of 0, 1, 2, 5, and 10 μM, and then cells were cultivated for 72 h under normal cell culture conditions. An aliquot (10 μL) of the EZ-Cytox solution was added to each well and cultivated for 2 h. Well absorbance was recorded at 450 nm using a VE microplate reader to calculate cell viability.

HaCaT cells = test: Cytotoxicity assay on HaCaT cells (EZ-Cytox); type: cell-based, human; details: 2, 5, 10 and 20 μM, 72 h
Protocol: As keratinocytes are one of the major cells that constitute the epidermis, the effects of analogs 1–3 on HaCaT (immortalized human keratinocytes) cell viability were investigated. Analogs 1–3 were tested at concentrations of 0, 2, 5, 10, and 20 μM, and cell viability was determined 72 h after incubation.
The effect of (Z)-BBTT analogs 1–3 on HaCaT cell viability was examined using EZ-Cytox solution. HaCaT cells were seeded at a density of 1 × 10^3 in each well of a 96-well plate, and the plate was cultivated under normal cell culture conditions for 24 h. Analogs 1–3 were added to each well at concentrations of 0, 2, 5, 10, and 20 μM and then cultivated for 72 h under normal cell culture conditions. An aliquot (10 μL) of the EZ-Cytox solution was added to each well and cultivated for 2 h. Well absorbance was recorded at 450 nm using a VE microplate reader to calculate HaCaT cell viability.

[3] = biological target: T1, B16F10 cellular tyrosinase (Mus musculus, UniProt P11344); test: Cellular tyrosinase activity measurement in B16F10 cells; type: cell-based, murine; details: α-MSH + IBMX, 72 h; for inhibition of cellular tyrosinase activity compared with kojic acid: 10 μM; for effect on stimulator-enhanced cellular tyrosinase activity: 2, 5 and 10 μM, concentration-dependent
T1 construct: endogenous in cells; host or cells: B16F10 murine melanoma cells stimulated with α-MSH and IBMX
T1 sequence (P11344 19-533): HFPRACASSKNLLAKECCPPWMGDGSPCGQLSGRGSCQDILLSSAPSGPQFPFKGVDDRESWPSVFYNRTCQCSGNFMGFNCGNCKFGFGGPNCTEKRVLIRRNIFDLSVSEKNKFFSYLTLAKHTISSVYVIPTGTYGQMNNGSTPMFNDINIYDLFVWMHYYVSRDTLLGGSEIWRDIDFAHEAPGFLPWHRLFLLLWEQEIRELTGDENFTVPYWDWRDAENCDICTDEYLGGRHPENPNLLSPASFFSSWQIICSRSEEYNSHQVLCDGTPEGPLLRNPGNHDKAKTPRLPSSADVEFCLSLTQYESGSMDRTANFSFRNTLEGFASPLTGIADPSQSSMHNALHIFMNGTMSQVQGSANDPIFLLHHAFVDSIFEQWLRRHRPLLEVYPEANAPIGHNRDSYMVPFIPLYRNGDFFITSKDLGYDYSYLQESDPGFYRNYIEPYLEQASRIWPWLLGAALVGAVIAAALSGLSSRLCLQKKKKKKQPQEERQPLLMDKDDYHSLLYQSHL
Protocol: The cellular tyrosinase inhibitory activity of the test samples was determined by measuring their optical density at 475 nm 72 h after test sample treatment.
B16F10 cells were seeded at a density of 5000 per well of a 6-well plate, and the plate was cultivated under normal cell culture conditions for 24 h. […] Stimulators (200 μM IBMX and 1 μM α-MSH) were added to each well and cultivated for 72 h under normal cell culture conditions. To determine cellular tyrosinase activity, the cells were washed twice with PBS, treated with lysis buffer solution (100 μL) comprising 50 mM phosphate buffer (pH 6.5) (90 μL), 2 mM phenylmethanesulfonyl fluoride (5 μL), and 20% Triton X-100 (5 μL), and incubated at −80 °C for 30 min. After centrifugation (10,000× g, 4 °C, and 10 min), the supernatants (80 μL each) were transferred to each well of a 96-well plate, then 10 mM L-DOPA (20 μL) was added to each well. The absorbance was measured at 475 nm at 1 min intervals for 10 min using a VE microplate reader to determine cellular tyrosinase activity.

B16F10 cell tyrosinase = biological target: T2, B16F10 cell tyrosinase (Mus musculus, UniProt P11344); test: In situ cellular tyrosinase activity in B16F10 cells (L-DOPA staining); type: cell-based, murine; details: for relative dark area of cells compared with kojic acid at the same concentration: 10 μM, L-DOPA staining; for number of cells strongly stained with melanin: kojic acid 10 μM, analogs 2, 5 and 10 μM, α-MSH + IBMX, 72 h
T2 construct: endogenous in cells; host or cells: B16F10 murine melanoma cells stimulated with α-MSH and IBMX
T2 sequence (P11344 19-533): T1 sequence (P11344 19-533)
Protocol: To identify the in situ cellular tyrosinase inhibitory activity of analogs 1 and 3, B16F10 cells and L-DOPA were used as the experimental target cells and substrate for melanin synthesis, respectively. […] B16F10 cells were photographed after 2 h of treatment with excess L-DOPA, and the darkness of the cells was measured using the CS analyzer program (ATTO, Tokyo, Japan). Analogs 1 and 3 were used at 2, 5, and 10 μM.
After 1 h, the cells were exposed to 1 μM α-MSH and 200 μM IBMX and cultivated under normal cell culture conditions for 72 h. Cultured cells were fixed using a 4% paraformaldehyde solution for 40 min, washed twice with PBS, and permeabilized using 0.1% Triton X-100 for 2 min. L-DOPA solution (2 mM; 500 μL) was added to each well after washing twice with PBS. After the plate was placed for 2 h at 37 °C, the images for cell staining were acquired using a camera attached to a microscope (Motic, Hong Kong).

B16F10 cells [4] = test: Cellular melanin level measurement in B16F10 cells; type: cell-based, murine; details: 72 h; for effect on stimulator-induced increase in melanin contents: 2, 5 and 10 μM, concentration-dependent
Protocol: Stimulators comprising 1 μM α-melanocyte-stimulating hormone (α-MSH) and 200 μM 3-isobutyl-1-methylxanthine (IBMX) were administered 1 h after test sample treatment. The effects of analogs 1 and 3 on melanin production were determined by measuring the optical density at 405 nm after 72 h of treatment.
B16F10 cells were seeded at a density of 5000 per well of a 6-well plate, and the plate was cultivated under normal cell culture conditions for 24 h. […] In addition, 200 μM IBMX and 1 μM α-MSH (Alomone Labs™, Jerusalem, Israel) were added to each well and cultivated for 72 h under the normal cell culture conditions. To determine the cellular melanin levels, 1N–NaOH solution (100 μL) was added to each well and then kept at 60 °C for 1 h to lyse the cells. The cell lysates were washed twice with phosphate-buffered saline (PBS) and transferred to a 96-well plate, and the absorbance was recorded at 405 nm using a VE microplate reader to determine the cellular melanin content.

[5] = ROS-scavenging activity (SIN-1, DCFH); details: 40 μM, SIN-1 10 μM
Protocol: UV-A radiation induces ROS generation substantially, and oxidative stress accelerates melanin formation in organisms. Thus, the ROS-scavenging ability of (Z)-BBTT analogs was examined to determine whether these analogs have an auxiliary ability to scavenge ROS. 3-Morpholinosydnonimine (SIN-1; 10 μM) was used as a ROS generating substance, and Trolox (40 μM) was used as a positive reference standard.
The test samples ((Z)-BBTT analogs 1–12 and Trolox [positive reference standard]) and 3-morpholinosydnonimine (SIN-1) were dissolved in DMSO and PBS, respectively. To prepare 2′,7′-dichlorodihydrofluorescein (DCFH) solution, PBS (50 mM; 4.9 mL, pH 7.4) and DCFH diacetate (2.5 mM; 0.05 mL) were mixed with esterase (15 units/10 mL; 0.05 mL). After storage for 30 min at 20 °C, the mixture was placed in the dark until further use. SIN-1 (10 µL) was added to each well of a 96-well black plate containing PBS (180 µL) and test sample (10 µL), and the plate was placed in the dark for 5 min. The prepared DCFH solution (50 µL) was added to each well of the black plate. The fluorescence of each well was recorded at 535 nm using a microplate reader (Berthold Advances GmbH & Co., Bad Wildbad, Germany) at an excitation wavelength of 485 nm. The test samples and SIN-1 were tested at final concentrations of 40 and 10 μM, respectively.

[6] = ABTS cation radical scavenging activity; details: 100 μM, 2 min in the dark
Protocol: To measure the scavenging effects of analogs 1–12 on ABTS^+ radicals, ABTS was initially treated with potassium persulfate to yield ABTS^•+. The formed ABTS^+ radical solution was mixed with test samples (analogs 1–12 and Trolox [positive reference standard]; final concentration: 100 μM), and absorbance was measured at 732 nm after storing for 2 min in the dark to determine %ABTS^•+-scavenging ability.
ABTS^•+ was prepared by mixing equal amounts of ABTS (14 mM in H2O) and K2S2O8 (4.9 mM in H2O) and storing in the dark at 20 °C for 16 h. Prior to use, the absorbance of the prepared ABTS^•+ solution was adjusted to 0.7 ± 0.02 at 732 nm by dilution with methanol. A cosolvent (EtOH:DMSO = 10:1 [v/v]) was used to prepare solutions of the test samples (analogs 1–12 and Trolox [positive reference standard]). All test samples were used at a final concentration of 100 μM. The test sample solution (10 μL) was mixed with the adjusted ABTS^•+ solution (90 μL) in each well of a 96-well plate, and the mixture was kept in the dark at 20 °C for 2 min. The absorbance was recorded at 732 nm at 1 min intervals for 10 min using a VE microplate reader. The percentage of radical-scavenging activity was calculated using the formula % radical-scavenging activity = [(Abscontrol − Abssample)/Abscontrol] × 100, where Abssample and Abscontrol are absorbances of the sample and control, respectively.

Compound | % DPPH radical-scavenging [1] | cytotoxicity to B16F10 cells (B16F10 cells [2]) | cytotoxicity to HaCaT cells (HaCaT cells) | inhibition of cellular tyrosinase activity compared with kojic acid [3] | effect on stimulator-enhanced cellular tyrosinase activity [3] | relative dark area of cells compared with kojic acid at the same concentration (B16F10 cell tyrosinase) | number of cells strongly stained with melanin (B16F10 cell tyrosinase) | effect on stimulator-induced increase in melanin contents (B16F10 cells [4]; α-MSH + IBMX) | ROS-scavenging activity (SIN-1-induced ROS levels) [5] | % ABTS^•+ scavenging [6] | also measured
O=C1O[C@H]([C@@H](O)CO)C(O)=C1O [Ascorbic acid, L-Ascorbic acid, reference compound] | 97% | – | – | – | – | – | – | – | – | – | –
O=C1/C(=C/c2ccc(O)cc2)SC(=S)N1Cc1ccccc1 [Compound 1, (Z)-3-Benzyl-5-(4-hydroxybenzylidene)-2-thioxothiazolidin-4-one] | – | not cytotoxic; also recorded: no perceptible cytotoxicity | no perceptible cytotoxicity | more strongly than kojic acid | significantly decreased | significantly less than that of kojic acid | reduced the number of strongly stained cells in a concentration-dependent manner | significantly decreased | – | – | inhibitory potency relative to kojic acid (IC50 ratio) (mushroom tyrosinase): four-fold lower; stimulator-induced increased melanin content reduced by (fold) (B16F10 cells [4]; 10 μM, α-MSH 1 μM + IBMX 200 μM, stimulators alone 5.0-fold increase): 1.9 fold
O=C1/C(=C/c2ccc(O)c(O)c2)SC(=S)N1Cc1ccccc1 [Compound 2, (Z)-3-Benzyl-5-(3,4-dihydroxybenzylidene)-2-thioxothiazolidin-4-one] | 95% | cytotoxic at all tested concentrations | – | – | – | – | – | – | greater ROS-scavenging potency than Trolox | 99% | –
O=C1/C(=C/c2ccc(O)cc2O)SC(=S)N1Cc1ccccc1 [Compound 3, (Z)-3-Benzyl-5-(2,4-dihydroxybenzylidene)-2-thioxothiazolidin-4-one] | – | not cytotoxic; also recorded: no perceptible cytotoxicity | no perceptible cytotoxicity | more strongly than kojic acid | significantly decreased | significantly less than that of kojic acid | reduced the number of strongly stained cells in a concentration-dependent manner | significantly decreased | equipotent to that of Trolox | 98% | inhibition of melanin production compared with kojic acid at the same concentration (B16F10 cells [4]; 10 μM, α-MSH + IBMX): significantly more potently than kojic acid; melanin content compared with 10 μM kojic acid (B16F10 cells [4]; analog at 2 μM, α-MSH + IBMX): more weakly than 10 μM kojic acid
COc1ccc(/C=C2\SC(=S)N(Cc3ccccc3)C2=O)cc1O [Compound 5, (Z)-3-Benzyl-5-(3-hydroxy-4-methoxybenzylidene)-2-thioxothiazolidin-4-one] | 17% | – | – | – | – | – | – | – | – | 71% | –
Cc1c(C)c2c(c(C)c1O)CCC(C)(C(=O)O)O2 (centres unmarked) [Trolox, reference compound] | – | – | – | – | – | – | – | – | significantly reduced | 99% | –
